Results published in US20110230481A2, “DERIVATIVES OF TETRABROMOBENZIMIDAZOLE, A PROCESS FOR THE PREPARATION THEREOF, A PHARMACEUTICAL COMPOSITION COMPRISING THE SAME, A METHOD OF USING THE SAME, A METHOD FOR MODULATING OR REGULATING SERINE/THREONINE KINASES, AND SERINE/THREONINE KINASES MODULATING AGENT” (SELVITA S.A., priority 2009, published 2011).
Values after ≈ are worked out from the molar mass of the structure shown.

Columns and labels:
[1] = test system: human acute myeloid leukemia MOLM-13 cells; assay: Growth inhibition test (MTS); type: cell-based; conditions: Homo sapiens, MOLM-13; MOLM13; 72 hours; read-out: Cytotoxicity in MTS assay (ED50)
Protocol: (§1) Ten thousand cells of acute myeloid leukemia MOLM-13 were inoculated into each well of a 96-well microplate (manufactured by Corning Corp.) using RPMI 8226 medium (culture medium) containing 10% fetal calf serum (FCS). The same day, a dimethyl sulfoxide (DMSO) solution of each test compound prepared in a concentration of 10 mmol/L was further diluted with DMSO to the desired concentrations (0.1, 0.5, 1, 2.5, 5 and 10 micromol/L), and the diluted solution was added to each well. The individual wells were further cultured in 5% carbon dioxide at 37° C. for 72 hours. After completion of the culture, 10 μl MTS (3-(4,5-Dimethyl-2-thiazolyl)-5-(carboxymethoxyphenyl)-2-(4-sulfophenyl)-2H-tetrazolium, inner salt assay (CellTiter96® AQueous One Solution Cell Proliferation Assay, Promega) was added to each well, and culturing was performed in 5% carbon dioxide at 37° C. for 2 hours. Using a microplate spectrophotometer (Synergy 2 multi-mode microplate reader (BioTek)), the absorbance of each well was measured at 490 nm. The value for cells not incorporated with a test compound was designated as 100%. By comparing these values with the absorbance difference obtained at the well in which each test compound was added, the cell viability (% viability) after treatment with the test compound was calculated.

[2] = test system: human myelomonocytic, biphenotypic leukemia MV4-11 cells; assay: Growth inhibition test (MTS); type: cell-based; conditions: Homo sapiens, MV4-11; MV-4-11; 72 hours; read-out: Cytotoxicity in MTS assay (ED50)
Protocol: as §1, with “human myelomonocytic, biphenotypic” for “acute myeloid”, “MV4-11” for “MOLM-13”, “Iscove's MDM” for “RPMI 8226”

[3] = test system: human acute lymphocytic leukemia E6.1 Jurkat cells; assay: Growth inhibition test (MTS); type: cell-based; conditions: Homo sapiens, 72 hours, read-out: Cytotoxicity in MTS assay (ED50)
Protocol: (§2) Twenty thousand cells of human acute lumphocytic leukemia E6.1 Jurkat were inoculated into each well of a 96-well microplate (manufactured by Corning Corp.) using RPMI 8226 medium (culture medium) containing 10% fetal calf serum (FCS). The same day, a dimethyl sulfoxide (DMSO) solution of each test compound prepared in a concentration of 10 mmol/L was further diluted with DMSO to the desired concentrations (0.1, 0.5, 1, 2.5, 5 and 10 micromol/L), and the diluted solution was added to each well. The individual wells were further cultured in 5% carbon dioxide at 37° C. for 72 hours. After completion of the culture, 10 μl MTS (3-(4,5-Dimethyl-2-thiazolyl)-5-(carboxymethoxyphenyl)-2-(4-sulfophenyl)-2H-tetrazolium, inner salt assay (CellTiter96® AQueous One Solution Cell Proliferation Assay, Promega) was added to each well, and culturing was performed in 5% carbon dioxide at 37° C. for 2 hours. Using a microplate spectrophotometer (Synergy 2 multi-mode microplate reader (BioTek)), the absorbance of each well was measured at 490 nm. The value for cells not incorporated with a test compound was designated as 100%. By comparing these values with the absorbance difference obtained at the well in which each test compound was added, the cell viability (% viability) after treatment with the test compound was calculated.

PIM1 = PIM1 (Homo sapiens, UniProt P11309); assay: Radiometric kinase assay (HotSpot); conditions: for Selectivity for Pim-1 over CK2α: ratio of IC50 values
PIM1, sequence (P11309 whole entry): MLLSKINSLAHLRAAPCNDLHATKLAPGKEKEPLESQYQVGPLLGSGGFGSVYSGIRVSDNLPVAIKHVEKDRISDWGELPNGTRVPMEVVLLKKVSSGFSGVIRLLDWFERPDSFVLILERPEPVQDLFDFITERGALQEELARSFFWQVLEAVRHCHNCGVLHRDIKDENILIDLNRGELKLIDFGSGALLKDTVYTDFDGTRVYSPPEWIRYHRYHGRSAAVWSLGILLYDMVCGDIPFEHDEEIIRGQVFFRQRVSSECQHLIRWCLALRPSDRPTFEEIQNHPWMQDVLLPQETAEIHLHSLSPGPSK
Protocol: (§3) Kinase assays were performed at Reaction Biology Corporation (www.reactionbiology.com, Malvern Pa.) using the “HotSpot” assay platform. This assay platform is based on a radiometric filtration binding assay and is considered as the “gold standard” to which non-radiometric methods are compared. In this assay format, the kinase reaction is performed in the presence of 32 P-γ-ATP or 33 P-γ-ATP, followed by binding of the final radioisotope labeled peptide product to filters after which unreacted phosphate is washed away and the levels of phosphorylated peptide are measured.

PIM2 = PIM2 (Homo sapiens, UniProt Q9P1W9); assay: Radiometric kinase assay (HotSpot); conditions: for Selectivity for Pim-2 over CK2α: ratio of IC50 values
PIM2, sequence (Q9P1W9 whole entry): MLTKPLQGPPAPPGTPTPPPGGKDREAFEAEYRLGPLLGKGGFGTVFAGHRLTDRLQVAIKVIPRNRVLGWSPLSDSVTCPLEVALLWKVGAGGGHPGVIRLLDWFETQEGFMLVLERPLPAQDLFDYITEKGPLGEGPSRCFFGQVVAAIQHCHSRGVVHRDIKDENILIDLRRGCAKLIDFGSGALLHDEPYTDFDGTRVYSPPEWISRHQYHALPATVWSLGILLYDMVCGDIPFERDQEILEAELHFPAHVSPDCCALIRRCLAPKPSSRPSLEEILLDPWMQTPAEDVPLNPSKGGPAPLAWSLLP
Protocol: as §3

PIM3 = PIM3 (Homo sapiens, UniProt Q86V86); assay: Radiometric kinase assay (HotSpot); conditions: for Selectivity for Pim-3 over CK2α: ratio of IC50 values
Protocol: as §3

CK2α = CK2α (Homo sapiens, UniProt P68400); assay: Radiometric kinase assay (HotSpot)
CK2α, sequence (P68400 whole entry): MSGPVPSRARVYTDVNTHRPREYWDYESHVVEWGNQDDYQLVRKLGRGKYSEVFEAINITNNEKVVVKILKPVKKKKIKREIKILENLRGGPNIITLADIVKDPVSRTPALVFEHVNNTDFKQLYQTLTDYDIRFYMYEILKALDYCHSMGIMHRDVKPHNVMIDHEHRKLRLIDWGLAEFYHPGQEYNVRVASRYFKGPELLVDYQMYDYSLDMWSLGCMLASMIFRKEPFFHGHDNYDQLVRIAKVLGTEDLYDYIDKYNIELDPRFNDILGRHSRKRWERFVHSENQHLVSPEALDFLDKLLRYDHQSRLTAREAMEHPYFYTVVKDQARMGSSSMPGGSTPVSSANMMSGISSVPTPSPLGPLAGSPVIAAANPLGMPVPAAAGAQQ
Protocol: as §3

[4] = test system: human prostate adenocarcinoma PC3 cells; assay: Growth inhibition test (MTS); type: cell-based; conditions: PC-3; 72 hours
Protocol: as §2, with “Two” for “Twenty”, “prostate adenocarcinoma PC3” for “acute lumphocytic leukemia E6.1 Jurkat”, “Corp.), and” for “Corp.)”, “F12K (Ham's F12:[…]” for “RPMI”, “[…] 1:1)” for “8226”

[5] = test system: human prostate carcinoma DU145 cells; assay: Growth inhibition test (MTS); type: cell-based; conditions: 72 hours
Protocol: as §2, with “Two” for “Twenty”, “prostate carcinoma DU145” for “acute lumphocytic leukemia E6.1 Jurkat”, “Corp.), and” for “Corp.)”, “DMEM” for “RPMI 8226”, “innersalt” for “inner salt”

Solubility in pH 7.4 = conditions: phosphate buffer
Protocol: Compound stock solutions were prepared in DMSO to final concentrations of 1000 mM. For each compound studied, 12 solutions were prepared to cover concentrations from 0.001 to 1 mM. As a solvent 0.2 mM phosphate buffer (pH 7.4) was used. The final concentration of DMSO in the solutions was 1% (v/v). The solutions were left mixing for 24 hours at 37° C., 350 rpm and following incubation centrifuged for 5 minutes at 14500 rpm. The samples were then analyzed by RP HPLC using a C18 column and 0.2% solution of formic acid in water/acetonitrile mobile phase. […] The solubility was determined as the point as the point at which the concentration curve reaches plateau.

Compound	IC50 [1] [nM]	IC50 [2] [nM]	IC50 [3] [nM]	IC50 (PIM1) [nM]	Selectivity for Pim-1 over CK2α (PIM1)	IC50 (PIM2) [nM]	Selectivity for Pim-2 over CK2α (PIM2)	IC50 (PIM3) [nM]	Selectivity for Pim-3 over CK2α (PIM3)	IC50 (CK2α) [nM]	Cytotoxicity in MTS assay (ED50) [4] [nM]	Cytotoxicity in MTS assay (ED50) [5] [nM]	solubility at 24 h (Solubility in pH 7.4) [µM]
Brc1c(Br)c(Br)c2[nH]c(NCCCN3CCCCC3)nc2c1Br [Compound 59, 4,5,6,7-tetrabromo-N-(3-(piperidin-1-yl)propyl)-1H-benzo[d]imidazol-2-amine]	3510	2810	4410	88	9.7	1490	0.6	189	4.5	855	–	–	–
NCCCCNc1nc2c(Br)c(Br)c(Br)c(Br)c2[nH]1 [Compound 61, N-(4-aminobutyl)-4,5,6,7-tetrabromo-1H-benzo[d]imidazol-2-amine]	5950	4430	7920	5.2	74.2	199	1.9	20.2	19.1	386	–	–	–
Brc1c(Br)c(Br)c2[nH]c(NCCCn3ccnc3)nc2c1Br [Compound 65, N-(3-(1H-imidazol-1-yl)propyl)-4,5,6,7-tetrabromo-1H-benzo[d]imidazol-2-amine]	6880	> 10000	> 10000	87.1	5.1	823	0.5	15.8	28.3	448	>10000	7720	–
Brc1c(Br)c(Br)c2[nH]c(Nc3ccccc3)nc2c1Br [Compound 79, 4,5,6,7-tetrabromo-N-phenyl-1H-benzo[d]imidazol-2-amine]	5960	4400	9060	1510	1.3	> 20000	–	2960	0.7	1960	–	–	–
Nc1ccc(Nc2nc3c(Br)c(Br)c(Br)c(Br)c3[nH]2)cc1 [Compound 86, N1-(4,5,6,7-tetrabromo-1H-benzo[d]imidazol-2-yl)benzene-1,4-diamine]	8810	5810	8270	547	1.3	1550	0.5	680	1.1	734	–	–	–
NCC(O)CNc1nc2c(Br)c(Br)c(Br)c(Br)c2[nH]1 (centres unmarked) [Compound 90, 1-(4,5,6,7-tetrabromo-1H-benzo[d]imidazol-2-ylamino)-3-aminopropan-2-ol]	6910	2120	5780	9.1	12.0	90.3	1.2	7.6	14.4	110	–	–	72 (≈ 37.6 µg/mL)
